From ChEMBL document CHEMBL1138109, “Semicarbazone-based inhibitors of cathepsin K, are they prodrugs for aldehyde inhibitors?” (Bioorg Med Chem Lett, 2006)
Converted amounts (≈) assume the structure as drawn. Values belong to the compound of their own block, whether it stands above or below them.

What was measured:
Cathepsin K [1] = biological target: T1, Cathepsin K (Homo sapiens, UniProt P43235); test: Inhibition of recombinant human cathepsin K in a fluorescence assay
T1 sequence (P43235 whole entry): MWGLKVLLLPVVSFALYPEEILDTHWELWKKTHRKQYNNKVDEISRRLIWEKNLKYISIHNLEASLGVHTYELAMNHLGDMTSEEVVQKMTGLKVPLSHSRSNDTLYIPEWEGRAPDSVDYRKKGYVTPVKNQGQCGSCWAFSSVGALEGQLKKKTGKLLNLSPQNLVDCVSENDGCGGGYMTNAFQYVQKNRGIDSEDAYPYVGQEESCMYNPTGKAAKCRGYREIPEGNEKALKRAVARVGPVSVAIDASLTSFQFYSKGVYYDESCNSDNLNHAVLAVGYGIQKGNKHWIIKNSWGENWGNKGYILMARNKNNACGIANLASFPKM

Pro-cathepsin H = biological target: T2, Pro-cathepsin H (Homo sapiens, UniProt P09668); test: Inhibition of recombinant human cathepsin H in a fluorescence assay
T2 sequence (P09668 whole entry): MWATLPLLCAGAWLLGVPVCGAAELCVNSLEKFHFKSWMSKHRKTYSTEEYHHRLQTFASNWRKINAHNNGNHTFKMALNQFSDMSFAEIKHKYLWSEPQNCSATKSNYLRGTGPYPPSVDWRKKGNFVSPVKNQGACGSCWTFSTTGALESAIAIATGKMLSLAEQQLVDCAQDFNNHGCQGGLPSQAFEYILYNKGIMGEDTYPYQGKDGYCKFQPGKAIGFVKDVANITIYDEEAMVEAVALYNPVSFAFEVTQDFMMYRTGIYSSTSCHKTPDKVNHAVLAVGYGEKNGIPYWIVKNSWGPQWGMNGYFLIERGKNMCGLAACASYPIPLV

Procathepsin L = Procathepsin L (Homo sapiens, UniProt P07711); test: Inhibition of recombinant human cathepsin L in a fluorescence assay
Cathepsin B = Cathepsin B (Homo sapiens, UniProt P07858); test: Inhibition of recombinant human cathepsin B in a fluorescence assay
[2] = Permeability across MDCK cells; type: ADME, cell-based, Canis lupus familiaris; conditions: dog
[3] = Oral bioavailability in male Han Wistar rat; type: ADME, organism-based; conditions: in vivo
Rattus norvegicus [4] = test: (§1) Terminal half life in iv dosed Han Wistar rat; type: ADME, organism-based; conditions: in vivo
[5] = Solubility in fasted state-simulated intestinal fluid at pH 6.8; type: physicochemical
Rattus norvegicus [6] = species on record: Rattus norvegicus; test: (§2) Volume of distribution in Han Wistar rat; type: ADME, organism-based; conditions: in vivo
Cathepsin K [7] = biological target: T3, Cathepsin K (Rattus norvegicus, UniProt O35186); test: Inhibition of rat cathepsin K
T3 sequence (O35186 whole entry): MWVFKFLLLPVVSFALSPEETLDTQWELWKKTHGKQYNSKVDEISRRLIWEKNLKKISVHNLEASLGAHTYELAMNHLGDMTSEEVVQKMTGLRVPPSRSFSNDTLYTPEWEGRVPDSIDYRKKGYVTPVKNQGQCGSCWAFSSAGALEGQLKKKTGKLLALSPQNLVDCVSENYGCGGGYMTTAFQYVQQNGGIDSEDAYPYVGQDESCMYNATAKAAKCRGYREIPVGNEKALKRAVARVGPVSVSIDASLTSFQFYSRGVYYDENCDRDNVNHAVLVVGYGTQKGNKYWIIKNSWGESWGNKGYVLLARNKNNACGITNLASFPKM

[8] = as §1; type: ADME, organism-based; conditions: Han Wistar, in vivo, read-out: beta t1/2
[9] = Clearance in Han Wistar rat; type: ADME, organism-based; conditions: in vivo
[10] = as §2; type: ADME, organism-based; conditions: Han Wistar, in vivo

Sequence of Procathepsin L (P07711 whole entry): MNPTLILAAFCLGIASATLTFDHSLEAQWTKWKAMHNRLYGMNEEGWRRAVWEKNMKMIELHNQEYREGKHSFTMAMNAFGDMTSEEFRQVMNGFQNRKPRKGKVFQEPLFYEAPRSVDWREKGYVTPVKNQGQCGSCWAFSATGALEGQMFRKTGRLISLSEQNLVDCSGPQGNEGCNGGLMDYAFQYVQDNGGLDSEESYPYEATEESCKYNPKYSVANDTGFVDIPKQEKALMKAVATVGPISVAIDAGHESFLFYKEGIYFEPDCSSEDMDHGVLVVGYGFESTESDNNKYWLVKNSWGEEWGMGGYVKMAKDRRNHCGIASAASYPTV

- IC50 (Cathepsin K [1]): 490 nM
Compound: CCCC[C@@H](/C=N/NC(=O)NCC)NC(=O)OC(C)(C)C

- IC50 (Cathepsin K [1]): 45 nM
Compound: CCCC[C@@H](/C=N/NC(=O)N(C)CCc1ccccc1)NC(=O)OC(C)(C)C

- IC50 (Pro-cathepsin H): 18 nM
- IC50 (Procathepsin L): 0.012 µM
- IC50 (Cathepsin B): 27 nM
Compound: CCCC[C@@H](C=O)NC(=O)O[C@H](Cc1ccccc1)C(C)C

- IC50 (Cathepsin K [1]): 1100 nM
Compound: CCCC[C@@H](/C=N/OC(=O)N1CCOCC1)NC(=O)OC(C)(C)C

- IC50 (Cathepsin K [1]): 170 nM
Compound: CCCC[C@@H](/C=N/NC(=O)NC(C)C)NC(=O)OC(C)(C)C

- IC50 (Pro-cathepsin H): > 13000 nM
- IC50 (Procathepsin L): 8.9 µM
- IC50 (Cathepsin B): 32000 nM
Compound: CCCC[C@@H](C=O)NC(=O)OC(C)(C)C

- IC50 (Cathepsin K [1]): 830 nM
Compound: CCCC[C@@H](/C=N/NC(=O)SC(C)C)NC(=O)OC(C)(C)C

- IC50 (Cathepsin K [1]): 24 nM
Compound: CCCC[C@@H](/C=N/NC(=O)C(F)(F)F)NC(=O)OC(C)(C)C

- IC50 (Pro-cathepsin H): > 13000 nM
- IC50 (Procathepsin L): 3.4 µM
- IC50 (Cathepsin K [1]): 1.1 nM
- IC50 (Cathepsin B): 1800 nM
Compound: CCCC[C@@H](/C=N/NC(=O)N1CCc2ccccc21)NC(=O)OC1(Cc2ccccc2)CCCC1

- IC50 (Cathepsin K [1]): 93 nM
Compound: CCCC[C@@H](/C=N/NC(=O)N1CCc2ccccc2C1)NC(=O)OC(C)(C)C

- IC50 (Cathepsin K [1]): 200 nM
Compound: CCCC[C@@H](/C=N/NC(=O)CC(C)C)NC(=O)OC(C)(C)C

- IC50 (Cathepsin K [1]): 58 nM
Compound: CCCC[C@@H](/C=N/NC(=O)N1CCCCC1)NC(=O)OC(C)(C)C

- Papp [2]: 20 ×10⁻⁶ cm/s
- bioavailability [3]: 0%
- beta t1/2 (Rattus norvegicus [4]): 18 min
- solubility [5]: 71 µg/mL (≈ 217 µM)
- Vdss (Rattus norvegicus [6]): 0.43 L/kg
- IC50 (Cathepsin K [1]): 36 nM
Compound: CCCC[C@@H](/C=N/NC(=O)N1CCCC1)NC(=O)OC(C)(C)C

- IC50 (Cathepsin K [1]): 350 nM
Compound: CCCC[C@@H](/C=N/NC(N)=O)NC(=O)OC(C)(C)C

- IC50 (Cathepsin K [1]): 110 nM
Compound: CC(C)C[C@@H](/[13CH]=N/NC(=O)N1CCOCC1)NC(=O)OC(C)(C)C

- IC50 (Cathepsin K [1]): 130 nM
Compound: CCCC[C@@H](/C=N/NC(=O)OC(C)C)NC(=O)OC(C)(C)C

- IC50 (Cathepsin K [1]): 520 nM
Compound: CCCC[C@@H](/C=N/NC(=O)NCC(=O)OCC)NC(=O)OC(C)(C)C

- IC50 (Cathepsin K [1]): 470 nM
Compound: CCCC[C@@H](/C=N/N[N+]1=CSCC1)NC(=O)OC(C)(C)C

- IC50 (Pro-cathepsin H): > 13000 nM
Compound: CCCC[C@@H](C=O)NC(=O)OC1(Cc2ccccc2)CCCC1

- IC50 (Cathepsin K [1]): 170 nM
Compound: CCCC[C@@H](/C=N/N=C(\S)NC(C)C)NC(=O)OC(C)(C)C

- IC50 (Cathepsin K [1]): 72 nM
Compound: CCCC[C@@H](/C=N/NC(=O)N(C)C)NC(=O)OC(C)(C)C

- IC50 (Cathepsin K [1]): 180 nM
Compound: CCCC[C@@H](/C=N/NC(=O)NC(=O)OC)NC(=O)OC(C)(C)C

- IC50 (Cathepsin K [1]): 260 nM
Compound: CCCC[C@@H](/C=N/NC(=O)NCCc1ccccc1)NC(=O)OC(C)(C)C

- IC50 (Cathepsin K [1]): 11000 nM
Compound: CCCC[C@@H](/C=N/N(C)C(=O)NCCc1ccccc1)NC(=O)OC(C)(C)C

- IC50 (Pro-cathepsin H): 190 nM
- IC50 (Procathepsin L): 0.012 µM
- IC50 (Cathepsin K [1]): 0.33 nM
- IC50 (Cathepsin B): 18 nM
Compound: CCCC[C@@H](/C=N/NC(=O)N1CCOCC1)NC(=O)O[C@H](Cc1ccccc1)C(C)C

- Papp [2]: 15 ×10⁻⁶ cm/s
- bioavailability [3]: 0%
- beta t1/2 (Rattus norvegicus [4]): 10 min
- IC50 (Pro-cathepsin H): > 13000 nM
- IC50 (Procathepsin L): 14 µM
- solubility [5]: 33 µg/mL (≈ 88.1 µM)
- Vdss (Rattus norvegicus [6]): 0.54 L/kg
- IC50 (Cathepsin K [1]): 48 nM
- IC50 (Cathepsin B): 35000 nM
Compound: CCCC[C@@H](/C=N/NC(=O)N1CCc2ccccc21)NC(=O)OC(C)(C)C

- IC50 (Cathepsin K [1]): 33000 nM
Compound: CCCC[C@@H](/C=N/N=C(N)N)NC(=O)OC(C)(C)C

- IC50 (Cathepsin K [1]): 220 nM
Compound: CCCC[C@@H](/C=N/NC(=O)c1ccccc1)NC(=O)OC(C)(C)C

- IC50 (Cathepsin K [1]): 410 nM
Compound: CCCC[C@@H](/C=N/NC(=O)NCc1ccccc1)NC(=O)OC(C)(C)C

- IC50 (Cathepsin K [1]): 59 nM
Compound: CCCC[C@@H](/C=N/NC(=O)N1CCCc2ccccc21)NC(=O)OC(C)(C)C

- IC50 (Cathepsin K [1]): 520 nM
Compound: CCCC[C@@H](/C=N/N(C)C(=O)N(C)CCc1ccccc1)NC(=O)OC(C)(C)C

- Papp [2]: 14 ×10⁻⁶ cm/s
- bioavailability [3]: 0%
- beta t1/2 (Rattus norvegicus [4]): 9 min
- IC50 (Pro-cathepsin H): 230 nM
- IC50 (Procathepsin L): 0.54 µM
- IC50 (Cathepsin K [7]): 130 nM
- solubility [5]: 60 µg/mL (≈ 148 µM)
- Vdss (Rattus norvegicus [6]): 0.22 L/kg
- IC50 (Cathepsin K [1]): 0.94 nM
- IC50 (Cathepsin B): 270 nM
Compound: CCCC[C@@H](/C=N/NC(=O)N1CCOCC1)NC(=O)O[C@@H](C)Cc1ccccc1

- IC50 (Cathepsin K [1]): 40 nM
Compound: CCCC[C@@H](/C=N/NC(=O)N(CC)CC)NC(=O)OC(C)(C)C

- IC50 (Cathepsin K [1]): 280 nM
Compound: CCCC[C@@H](/C=N/NC(=O)NC)NC(=O)OC(C)(C)C

- IC50 (Pro-cathepsin H): 40 nM
Compound: CCCC[C@@H](C=O)NC(=O)O[C@@H](C)Cc1ccccc1

- Papp [2]: 77 ×10⁻⁶ cm/s
- bioavailability [3]: 26%
- half-life [8]: 39 min
- solubility [5]: 380 µg/mL (≈ 1130 µM)
- clearance [9]: 25 mL/min/kg
- Vd [10]: 0.39 L/kg
- IC50 (Cathepsin K [1]): 72 nM
Compound: CCCC[C@@H](/C=N/NS(=O)(=O)N(C)C)NC(=O)OC(C)(C)C

- IC50 (Cathepsin K [1]): 160 nM
Compound: CCCC[C@@H](/C=N/NC(=O)NC(C)(C)C)NC(=O)OC(C)(C)C

- IC50 (Cathepsin K [1]): 470 nM
Compound: CCCC[C@@H](/C=N/NC(=O)NCCC(=O)OCC)NC(=O)OC(C)(C)C

- Papp [2]: 6.2 ×10⁻⁶ cm/s
- bioavailability [3]: 3.9%
- half-life [8]: 22 min
- IC50 (Pro-cathepsin H): > 13000 nM
- IC50 (Procathepsin L): 11 µM
- solubility [5]: 120 µg/mL (≈ 350 µM)
- clearance [9]: 43 mL/min/kg
- Vd [10]: 0.57 L/kg
- IC50 (Cathepsin K [1]): 35 nM
- IC50 (Cathepsin B): 32000 nM
Compound: CCCC[C@@H](/C=N/NC(=O)N1CCOCC1)NC(=O)OC(C)(C)C

- IC50 (Cathepsin K [1]): 400 nM
Compound: CCCC[C@@H](/C=N/NC(=O)Nc1ccccc1)NC(=O)OC(C)(C)C

- IC50 (Cathepsin K [1]): 31 nM
Compound: CC(C)C[C@@H]([13CH]=O)NC(=O)OC(C)(C)C
